According to ChEMBL document CHEMBL1125860 (J Med Chem, 1991):
Calls of active or inactive are those of the source. The rule behind the calls is not given here.

Tests used:
Rattus norvegicus [1] = assay: In vivo inhibition of galactitol accumulation in diaphragm of rat at 65 mg/kg/day; assay type: functional
Rattus norvegicus [2] = assay: In vivo inhibition of galactitol accumulation in sciatic nerves of rat at 65 mg/kg/day; Not significant; assay type: functional, organism-based; conditions: Sciatic nerve
[3] = molecular target: Aldo-keto reductase family 1 member B1 (Bos taurus) (UniProt P16116); assay: In vitro % decrease of aldose reductase measured in isolated partially purified bovine lens preparations at 10e-7 M concentration
Rattus norvegicus [4] = organism: Rattus norvegicus; assay: (§1) In vitro inhibition of sorbitol accumulation was measured in rat sciatic nerves incubated in the presence of 50 mM glucose at 10e-6 M concentration; assay type: functional, Sciatic nerve
Rattus norvegicus [5] = organism: Rattus norvegicus; assay: (§2) In vitro inhibition of sorbitol accumulation was measured in rat sciatic nerves incubated in the presence of 50 mM glucose at 10e-5 M concentration; assay type: functional, Sciatic nerve
Rattus norvegicus [6] = assay: In vivo inhibition of galactitol accumulation in sciatic nerves of rat at 114 mg/kg/day; Not significant; assay type: functional, organism-based; conditions: Sciatic nerve
Rattus norvegicus [7] = assay: In vivo inhibition of galactitol accumulation in diaphragm of rat at 114 mg/kg/day; Not significant; assay type: functional, organism-based
Rattus norvegicus [8] = assay: In vivo inhibition of galactitol accumulation in sciatic nerves of rat at 43 mg/kg/day; Not significant; assay type: functional, organism-based; conditions: Sciatic nerve
Rattus norvegicus [9] = assay: In vivo inhibition of galactitol accumulation in diaphragm of rat at 43 mg/kg/day; Not significant; assay type: functional, organism-based
Rattus norvegicus [10] = organism: Rattus norvegicus; assay: Inhibition of galactitol accumulation in rat lens incubated in presence of 50 mM glucose; assay type: functional, organism-based; conditions: Lens of camera-type eye
Rattus norvegicus [11] = organism: Rattus norvegicus; assay: inhibition of aldose reductase activity was measured by measuring sorbitor accumulation in the sciatic nerves of STZ diabetic rat.; assay type: functional; conditions: Sciatic nerve
Rattus norvegicus [12] = organism: Rattus norvegicus; assay: Inhibition of galactitol accumulation in rat RBC incubated in presence of 50 mM glucose; assay type: functional, organism-based
Rattus norvegicus [13] = assay: In vivo inhibition of galactitol accumulation in sciatic nerves of rat at 6 mg/kg/day; assay type: functional; conditions: Sciatic nerve
Rattus norvegicus [14] = organism: Rattus norvegicus; assay: inhibition of aldose reductase activity was measured by measuring […] in the RBC of galactose fed rat.; assay type: functional
Rattus norvegicus [15] = organism: Rattus norvegicus; assay: Inhibition of galactitol accumulation in sciatic nerves of rat incubated in presence of 50 mM glucose.; assay type: functional, organism-based; conditions: Sciatic nerve
Rattus norvegicus [16] = assay: In vivo inhibition of galactitol accumulation in diaphragm of rat at 6 mg/kg/day; assay type: functional
Rattus norvegicus [17] = organism: Rattus norvegicus; assay: inhibition of aldose reductase activity was measured by measuring […] in the sciatic nerves of galactose fed rat.; assay type: functional; conditions: Sciatic nerve
Rattus norvegicus [18] = assay: In vivo inhibition of galactitol accumulation in diaphragm of rat at 15 mg/kg/day; assay type: functional
Rattus norvegicus [19] = assay: In vivo inhibition of galactitol accumulation in sciatic nerves of rat at 25 mg/kg/day; assay type: functional; conditions: Sciatic nerve
Rattus norvegicus [20] = assay: In vivo inhibition of galactitol accumulation in sciatic nerves of rat at 15 mg/kg/day; assay type: functional; conditions: Sciatic nerve
Rattus norvegicus [21] = assay: In vivo inhibition of galactitol accumulation in diaphragm of rat at 25 mg/kg/day; assay type: functional
Rattus norvegicus [22] = assay: In vivo inhibition of galactitol accumulation in sciatic nerves of rat at 18 mg/kg; assay type: functional; conditions: Sciatic nerve
Rattus norvegicus [23] = assay: In vivo inhibition of galactitol accumulation in diaphragm of rat at 18 mg/kg/day; assay type: functional
Rattus norvegicus [24] = assay: In vivo inhibition of galactitol accumulation in sciatic nerves of rat at 133 mg/kg/day; assay type: functional; conditions: Sciatic nerve
Rattus norvegicus [25] = assay: In vivo inhibition of galactitol accumulation in diaphragm of rat at 133 mg/kg/day; assay type: functional
Rattus norvegicus [26] = assay: In vivo inhibition of galactitol accumulation in diaphragm of rat at 24 mg/kg/day; assay type: functional
Rattus norvegicus [27] = assay: In vivo inhibition of galactitol accumulation in sciatic nerves of rat at 50 mg/kg/day; assay type: functional; conditions: Sciatic nerve
Rattus norvegicus [28] = assay: In vivo inhibition of galactitol accumulation in sciatic nerves of rat at 24 mg/kg/day; assay type: functional; conditions: Sciatic nerve
Rattus norvegicus [29] = assay: In vivo inhibition of galactitol accumulation in diaphragm of rat at 50 mg/kg; assay type: functional
Rattus norvegicus [30] = assay: In vivo inhibition of galactitol accumulation in diaphragm of rat at 94 mg/kg/day; assay type: functional
Rattus norvegicus [31] = assay: In vivo inhibition of galactitol accumulation in sciatic nerves of rat at 94 mg/kg/day; Not significant; assay type: functional, organism-based; conditions: Sciatic nerve
Rattus norvegicus [32] = assay: In vivo inhibition of galactitol accumulation in sciatic nerves of rat at 11 mg/kg/day; assay type: functional; conditions: Sciatic nerve
Rattus norvegicus [33] = assay: In vivo inhibition of galactitol accumulation in diaphragm of rat at 27 mg/kg/day; assay type: functional
Rattus norvegicus [34] = assay: In vivo inhibition of galactitol accumulation in diaphragm of rat at 22 mg/kg/day; assay type: functional
Rattus norvegicus [35] = assay: In vivo inhibition of galactitol accumulation in sciatic nerves of rat at 22 mg/kg/day; assay type: functional; conditions: Sciatic nerve
Rattus norvegicus [36] = assay: In vivo inhibition of galactitol accumulation in diaphragm of rat at 11 mg/kg/day; assay type: functional
[37] = molecular target: Aldo-keto reductase family 1 member B1 (Bos taurus) (UniProt P16116); assay: In vitro % decrease of aldose reductase was measured in isolated partially purified bovine lens preparations at 10e-7 M concentration; Not active
Rattus norvegicus [38] = assay: In vivo inhibition of galactitol accumulation in sciatic nerves of rat at 27 mg/kg/day; assay type: functional; conditions: Sciatic nerve
Rattus norvegicus [39] = organism: Rattus norvegicus; assay: as §2; assay type: functional; conditions: Sciatic nerve
Rattus norvegicus [40] = assay: Effective dose of aldose reductase was evaluated by measuring galactitol accumulation in sciatic nerves of rat at 5 mg/kg/day; assay type: functional; conditions: Sciatic nerve
[41] = molecular target: Aldo-keto reductase family 1 member B1 (Bos taurus, UniProt P16116); assay: In vitro Inhibition of aldose reductase was measured in isolated partially purified bovine lens preparations at 10e-7 M concentration
Rattus norvegicus [42] = organism: Rattus norvegicus; assay: as §1; assay type: functional; conditions: Sciatic nerve
Rattus norvegicus [43] = assay: In vivo inhibition of galactitol accumulation in sciatic nerves of rat at 5 mg/kg/day; assay type: functional; conditions: Sciatic nerve
Rattus norvegicus [44] = organism: Rattus norvegicus; assay: % inhibition of aldose reductase was measured in rat serbital sciatic nerves incubated in the presence of 50 mM glucose at 10e-6 M concentration; assay type: functional, Sciatic nerve
Rattus norvegicus [45] = assay: In vivo inhibition of galactitol accumulation in diaphragm of rat at 5 mg/kg/day; assay type: functional

## COc1ccc2c(C(=O)N(C)CC(=O)O)c(OCc3ccccc3)ccc2c1C(F)(F)F
Rattus norvegicus [1]
  inhibition in vivo at 65 mg/kg/day: 23%
Rattus norvegicus [2]
  inhibition: inactive
[3]
  inhibition: 73%

## COc1ccc2c(C(=O)N(C)CC(=O)O)cc(C)cc2c1Br
Rattus norvegicus [4]
  Inhibition: 20%
Rattus norvegicus [5]
  Inhibition: 52%
Rattus norvegicus [6]
  inhibition: inactive
Rattus norvegicus [7]
  inhibition: inactive
[3]
  inhibition: 63%

## CCOC(=O)N(CC(=O)O)C(=O)c1c(Br)ccc2c(C(F)(F)F)c(OC)ccc12
Rattus norvegicus [8]
  inhibition: inactive
Rattus norvegicus [4]
  Inhibition: 52%
Rattus norvegicus [5]
  Inhibition: 73%
Rattus norvegicus [9]
  inhibition: inactive
[3]
  inhibition: 76%

## COc1ccc2c(C(=S)N(C)CC(=O)O)cccc2c1C(F)(F)F [TOLRESTAT]
Rattus norvegicus [4]
  Inhibition: 61%
Rattus norvegicus [5]
  Inhibition: 82%
Rattus norvegicus [10]
  IC50: 1000 nM
Rattus norvegicus [11]
  ED50: 4.8 mg/kg
Rattus norvegicus [12]
  IC50: 15 nM
Rattus norvegicus [13]
  inhibition in vivo at 6 mg/kg/day: 53%
Rattus norvegicus [14]
  ED50: < 2 mg/kg
Rattus norvegicus [15]
  IC50: 540 nM
Rattus norvegicus [16]
  inhibition in vivo at 6 mg/kg/day: 80%
Rattus norvegicus [17]
  ED50: 6.4 mg/kg

## CCOC(=O)N(CC(=O)O)C(=O)c1c(F)ccc2c(C(F)(F)F)c(OC)ccc12
Rattus norvegicus [4]
  Inhibition: 51%
Rattus norvegicus [5]
  Inhibition: 75%
Rattus norvegicus [18]
  inhibition in vivo at 15 mg/kg/day: 59%
Rattus norvegicus [19]
  inhibition in vivo at 25 mg/kg/day: 70%
Rattus norvegicus [20]
  inhibition in vivo at 15 mg/kg/day: 55%
Rattus norvegicus [21]
  inhibition in vivo at 25 mg/kg/day: 65%
[3]
  inhibition: 87%

## COc1ccc2c(C(=S)N(C)CC(=O)O)cccc2c1Br
Rattus norvegicus [22]
  inhibition in vivo at 18 mg/kg: 39%
Rattus norvegicus [19]
  inhibition in vivo at 25 mg/kg/day: 64%
Rattus norvegicus [23]
  inhibition in vivo at 18 mg/kg/day: 88%
Rattus norvegicus [21]
  inhibition in vivo at 25 mg/kg/day: 90%
[3]
  inhibition: 72%

## COc1ccc2c(C(=S)N(C)CC(=O)O)cc(-c3ccccc3)cc2c1Br
Rattus norvegicus [4]
  Inhibition: 30%
Rattus norvegicus [24]
  inhibition in vivo at 133 mg/kg/day: 58%
Rattus norvegicus [5]
  Inhibition: 68%
Rattus norvegicus [25]
  inhibition in vivo at 133 mg/kg/day: 85%
[3]
  inhibition: 81%

## COc1ccc2c(C(=O)N(C)CC(=O)O)c(OCC(F)(F)F)ccc2c1C(F)(F)F
Rattus norvegicus [4]
  Inhibition: 31%
Rattus norvegicus [5]
  Inhibition: 57%
Rattus norvegicus [26]
  inhibition in vivo at 24 mg/kg/day: 65%
Rattus norvegicus [27]
  inhibition in vivo at 50 mg/kg/day: 79%
Rattus norvegicus [28]
  inhibition in vivo at 24 mg/kg/day: 37%
Rattus norvegicus [29]
  inhibition in vivo at 50 mg/kg: 82%
[3]
  inhibition: 67%

## CCCCc1ccc2c(C(F)(F)F)c(OC)ccc2c1C(=O)N(C)CC(=O)O
Rattus norvegicus [30]
  inhibition in vivo at 94 mg/kg/day: 37%
Rattus norvegicus [31]
  inhibition: inactive
[3]
  inhibition: 23%

## COC(=O)CN(C)C(=O)c1c(F)ccc2c(C(F)(F)F)c(OC)ccc12
Rattus norvegicus [32]
  inhibition in vivo at 11 mg/kg/day: 29%
Rattus norvegicus [33]
  inhibition in vivo at 27 mg/kg/day: 48%
Rattus norvegicus [34]
  inhibition in vivo at 22 mg/kg/day: 55%
Rattus norvegicus [35]
  inhibition in vivo at 22 mg/kg/day: 80%
Rattus norvegicus [36]
  inhibition in vivo at 11 mg/kg/day: 34%
[37]
  inhibition: inactive
Rattus norvegicus [38]
  inhibition in vivo at 27 mg/kg/day: 48%

## O=C(O)Cc1nn(Cc2ccc(Br)cc2F)c(=O)c2ccccc12 [PONALRESTAT]
Rattus norvegicus [39]
  IC50: 1400 nM
Rattus norvegicus [40]
  ED50: 4 mg/kg
Rattus norvegicus [5]
  Inhibition: 100%
[41]
  IC50: 37 nM
Rattus norvegicus [42]
  IC50: 37 nM
Rattus norvegicus [43]
  inhibition in vivo at 5 mg/kg/day: 61%
Rattus norvegicus [44]
  Inhibition: 35%
Rattus norvegicus [45]
  inhibition in vivo at 5 mg/kg/day: 63%
